Laboratory results reported in patent US20250101063A1, “POLYPEPTIDE COMPOUND AND USE THEREOF IN TREATMENT OF ENTERITIS” (Sichuan Gooddoctor Panxi Pharmaceutical Co., Ltd., priority 2022, published 2025).
Entries after “also recorded” stand apart in the source; their conditions may differ. Where no end group is shown, it is not given here.

Legend:
[1] = system: zebrafish model of intestinal mucosal injury; experiment: Efficacy in relieving colitis: intestinal lumen area in TNBS-treated zebrafish; type: in vivo; details: for Intestinal lumen area (pixels, mean ± SE): 2 days after TNBS, n = 10; for Activity in relieving intestinal lumen dilatation: 1000 μg/mL, significance vs model control group of the same batch; for Intestinal lumen area compared with the model control group (in words): 250, 500, 1000 μg/mL, Table 4
Summary of the method: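 TNBS in water for 2 days at 28 °C in 3 dpf wild-type AB zebrafish, then test polypeptide in water for 2 days at 28 °C at 250, 500 or 1000 μg/mL; later rounds used 1000 μg/mL. Prednisone control at 15.0 μg/mL. Intestinal lumen area imaged in 10 fish/group, mean±SE.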

[2] = system: TNBS-induced model of acute inflammatory bowel disease (UC) in SD rat; experiment: TNBS-induced model of acute inflammatory bowel disease (UC) in SD rat; type: in vivo; details: for Body weight, Grouping day (D 0, g): D 0, before treatment; for Body weight, Grouping day (D 0, g) / DAI score, Experimental day 1 (D 1, point) / DAI score, Experimental day 3 (D 3, point) / Body weight, Experimental day 5 (D 5, g): enema once a day; for Body weight, Grouping day (D 0, g) / DAI score AUC(0-14 d) (D 0-D 14) / Weight change range (D 0-D 14, %) / DAI score, Experimental day 1 (D 1, point) / DAI score, Experimental day 3 (D 3, point) / Body weight, Experimental day 5 (D 5, g) / Body weight, Experimental endpoint (D 14, g) / DAI score, Experimental endpoint (D 14, point) / Colon length (cm) / Colon ulcer and inflammation score (point) / Colon ulcer area (cm^2) / Colon weight / Colon weight/length ratio (100* g/cm) / Colonic adhesion score (point): mean ± SD; for DAI score AUC(0-14 d) (D 0-D 14) / Weight change range (D 0-D 14, %) / Body weight, Experimental endpoint (D 14, g) / DAI score, Experimental endpoint (D 14, point) / Colon length (cm) / Colon ulcer and inflammation score (point) / Colon ulcer area (cm^2) / Colon weight / Colon weight/length ratio (100* g/cm) / Colonic adhesion score (point) / Effect on disease progression of ulcerative colitis / DAI scores (in words) / Effect on weight gain inhibition / weight loss response of model animals (in words): enema once a day 14 days; for Colon length (cm) / Colon ulcer and inflammation score (point) / Colon ulcer area (cm^2) / Colon weight / Colon weight/length ratio (100* g/cm) / Colonic adhesion score (point) / Effect on colon atrophy process / colon weight/length ratio (in words) / Effect on gross colon injury status (colonic adhesion, ulcer and inflammation) and colon ulcer area (in words): experimental endpoint; for Overall therapeutic effect in the rat model of ulcerative colitis (in words) / Effect on disease progression of ulcerative colitis / DAI scores (in words) / Effect on weight gain inhibition / weight loss response of model animals (in words) / Effect on colon atrophy process / colon weight/length ratio (in words) / Effect on gross colon injury status (colonic adhesion, ulcer and inflammation) and colon ulcer area (in words): set treatment regimen; for Effect on disease progression of ulcerative colitis / DAI scores (in words) / Effect on weight gain inhibition / weight loss response of model animals (in words) / Effect on colon atrophy process / colon weight/length ratio (in words) / Effect on gross colon injury status (colonic adhesion, ulcer and inflammation) and colon ulcer area (in words): vs model control group
From the text: In this experiment, a rat model of ulcerative colitis was established by administering trinitrobenzene sulfonic acid (TNBS) to laboratory animal male SD rats for a single enema intervention. Acute colitis in rats induced by trinitrobenzene sulfonic acid (TNBS) is an immune response induced by cytokines secreted by Th1 type cells. […] This model is simple to establish and has good reproducibility. It is an experimental animal model widely used in evaluating drugs for the treatment of inflammatory bowel disease. […] During the experimental treatment period (D1-D14), the body weight and general clinical observation indicators (including but not limited to food intake, water intake, activity level and defecation, etc.) of the animals in each experimental group were dynamically collected. At the same time, based on the relevant scoring standards for the disease activity index of ulcerative colitis, the reactivity such as the weight loss degree, stool morphology and trait, and bloody stool of the animals in each experimental group after TNBS induction were scored, and the disease activity index (DAI) of ulcerative colitis was calculated, once a day for 14 consecutive days. At the end point of the experiment, colon tissues of animals in each experimental group were collected, and the length and weight of the colon were measured and then the non-autopsy images were collected. Then the colon was cut open along the intestinal wall longitudinally and autopsy images were collected. Based on the “Criteria for Scoring Gross Morphological Manifestations of the Colon”, the gross damage with respect to colon adhesions, colon ulcers and inflammation of animals in each experimental group was observed and scored. Ulcer images were collected under a stereomicroscope and the area of colon ulcer foci was calculated, followed by routine fixation.

[3] = high dose group (compound 1: 6.0 mg/kg; compound 6: 2.8 mg/kg)
[4] = low dose group (compound 1: 3.0 mg/kg; compound 6: 1.4 mg/kg)
[5] = compound 12: 0.8 mg/kg, mesalazine: 30.0 mg/kg

Substance	Intestinal lumen area (pixels, mean ± SE) ([1]; 250 μg/mL in water) [pixels]	Intestinal lumen area (pixels, mean ± SE) ([1]; 500 μg/mL in water) [pixels]	Intestinal lumen area (pixels, mean ± SE) ([1]; 1000 μg/mL in water) [pixels]	Activity in relieving intestinal lumen dilatation [1]	Intestinal lumen area compared with the model control group (in words) [1]	Body weight, Grouping day (D 0, g) [2, 3] [g]	Body weight, Grouping day (D 0, g) [2, 4] [g]	DAI score AUC(0-14 d) (D 0-D 14) [2, 3]	Weight change range (D 0-D 14, %) [2, 3] [%]	DAI score AUC(0-14 d) (D 0-D 14) [2, 4]	Weight change range (D 0-D 14, %) [2, 4] [%]	DAI score, Experimental day 1 (D 1, point) [2, 3] [point]	DAI score, Experimental day 1 (D 1, point) [2, 4] [point]	DAI score, Experimental day 3 (D 3, point) [2, 3] [point]	DAI score, Experimental day 3 (D 3, point) [2, 4] [point]	Overall therapeutic effect in the rat model of ulcerative colitis (in words) [2]	Effect on disease progression of ulcerative colitis / DAI scores (in words) [2]	Effect on weight gain inhibition / weight loss response of model animals (in words) [2]	Effect on colon atrophy process / colon weight/length ratio (in words) [2]	Effect on gross colon injury status (colonic adhesion, ulcer and inflammation) and colon ulcer area (in words) [2]	other results
EPVPQAK [Compound 6]	53093 ± 3839	45831 ± 3894	28429 ± 3711	** (** p < 0.01)	significant statistical differences compared with the model control group	275.55 ± 7.92	276.61 ± 9.81	39.55 ± 3.99^####++++	1.50 ± 10.78	49.65 ± 3.95	0.48 ± 9.87	4.2 ± 0.8	3.9 ± 0.9	4.8 ± 1.0	5.0 ± 1.7	significant therapeutic effects	significant improvement effect on the disease progression of ulcerative colitis	no obvious improved therapeutic effect; also recorded: did not show a significant weight improvement effect	colon weight/length ratio was significantly decreased	obvious therapeutic effects; also recorded: significant therapeutic effects on the gross damage manifestation of the colon	Body weight, Experimental day 5 (D 5, g) [2, 3]: 246.74 ± 22.76 g; Body weight, Experimental day 5 (D 5, g) [2, 4]: 243.72 ± 22.18 g; Body weight, Experimental endpoint (D 14, g) [2, 3]: 279.67 ± 30.93 g; DAI score, Experimental endpoint (D 14, point) [2, 3]: 0.7 ± 1.2 point; Body weight, Experimental endpoint (D 14, g) [2, 4]: 277.96 ± 29.18 g; DAI score, Experimental endpoint (D 14, point) [2, 4]: 1.3 ± 1.2 point; Colon length (cm) [2, 3]: 13.89 ± 1.60 cm; Colon ulcer and inflammation score (point) [2, 3]: 2.50 ± 1.43 point; Colon ulcer area (cm^2) [2, 3]: 3.66 ± 2.36^# cm^2; Colon weight [2, 3]: 2.41 ± 0.63 g; Colon weight/length ratio (100* g/cm) [2, 3]: 17.70 ± 5.71# 100* g/cm; Colonic adhesion score (point) [2, 3]: 1.30 ± 0.82 point; Colon length (cm) [2, 4]: 13.37 ± 1.40 cm; Colon ulcer and inflammation score (point) [2, 4]: 3.00 ± 0.94 point; Colon ulcer area (cm^2) [2, 4]: 3.46 ± 2.06^## cm^2; Colon weight [2, 4]: 2.23 ± 0.39 g; Colon weight/length ratio (100* g/cm) [2, 4]: 16.93 ± 3.87^## 100* g/cm; Colonic adhesion score (point) [2, 4]: 1.70 ± 0.67 point
H-KEPVPQAKPRKVAAQ-OH [Compound 1]	39333 ± 2095	26497 ± 1245	26174 ± 1898	*** (*** p < 0.001)	significant statistical differences compared with the model control group	279.99 ± 10.57	274.40 ± 9.10	30.65 ± 2.93^####+++	6.97 ± 4.73	37.65 ± 3.60	7.96 ± 7.32	3.9 ± 0.6	3.5 ± 1.3	4.3 ± 1.8	4.9 ± 1.6	significant therapeutic effects	significant improvement effect on the disease progression of ulcerative colitis	significant effect of improving the weight gain inhibition; also recorded: significant improvement effect on the weight loss response	colon weight/length ratio was significantly decreased	obvious therapeutic effects; also recorded: significant therapeutic effects on the gross damage manifestation of the colon	Body weight, Experimental day 5 (D 5, g) [2, 3]: 263.90 ± 15.38 g; Body weight, Experimental day 5 (D 5, g) [2, 4]: 251.65 ± 18.30 g; Body weight, Experimental endpoint (D 14, g) [2, 3]: 299.37 ± 14.64 g; DAI score, Experimental endpoint (D 14, point) [2, 3]: 0.1 ± 0.3 point; Body weight, Experimental endpoint (D 14, g) [2, 4]: 296.07 ± 19.58 g; DAI score, Experimental endpoint (D 14, point) [2, 4]: 0.5 ± 0.7 point; Colon length (cm) [2, 3]: 16.55 ± 1.67 cm; Colon ulcer and inflammation score (point) [2, 3]: 1.40 ± 0.84^####++ point; Colon ulcer area (cm^2) [2, 3]: 2.15 ± 0.74^###+ cm^2; Colon weight [2, 3]: 2.20 ± 0.28 g; Colon weight/length ratio (100* g/cm) [2, 3]: 13.37 ± 1.93^####+ 100* g/cm; Colonic adhesion score (point) [2, 3]: 0.60 ± 0.52 point; Colon length (cm) [2, 4]: 15.34 ± 1.99 cm; Colon ulcer and inflammation score (point) [2, 4]: 2.50 ± 0.85 point; Colon ulcer area (cm^2) [2, 4]: 3.77 ± 1.91^# cm^2; Colon weight [2, 4]: 2.48 ± 0.46 g; Colon weight/length ratio (100* g/cm) [2, 4]: 16.40 ± 3.29^### 100* g/cm; Colonic adhesion score (point) [2, 4]: 1.10 ± 0.57 point
Pro-Val-Pro-Gln (PVPQ; printed: Pro-Val-Pro-Gln) [Compound 12]	48857 ± 5649	43802 ± 3228	26727 ± 2106	** (** p < 0.01)	significant statistical differences compared with the model control group											significant therapeutic effects	significant improvement effect on the disease progression of ulcerative colitis	no obvious improved therapeutic effect; also recorded: did not show a significant weight improvement effect	colon weight/length ratio was significantly decreased	obvious therapeutic effects; also recorded: significant therapeutic effects on the gross damage manifestation of the colon	Body weight, Grouping day (D 0, g) [2, 5]: 276.36 ± 7.47 g; DAI score AUC(0-14 d) (D 0-D 14) [2, 5]: 46.40 ± 3.68; Weight change range (D 0-D 14, %) [2, 5]: −1.52 ± 12.20%; DAI score, Experimental day 1 (D 1, point) [2, 5]: 4.1 ± 0.6 point; DAI score, Experimental day 3 (D 3, point) [2, 5]: 4.9 ± 1.0 point; Body weight, Experimental day 5 (D 5, g) [2, 5]: 244.90 ± 21.75 g; Body weight, Experimental endpoint (D 14, g) [2, 5]: 272.00 ± 33.21 g; DAI score, Experimental endpoint (D 14, point) [2, 5]: 1.4 ± 1.8 point; Colon length (cm) [2, 5]: 13.74 ± 1.97 cm; Colon ulcer and inflammation score (point) [2, 5]: 2.30 ± 0.82 point; Colon ulcer area (cm^2) [2, 5]: 3.79 ± 1.63^# cm^2; Colon weight [2, 5]: 2.10 ± 0.19 g; Colon weight/length ratio (100* g/cm) [2, 5]: 15.68 ± 3.14# 100* g/cm; Colonic adhesion score (point) [2, 5]: 1.20 ± 0.63 point
